Data reported in patent US11104670B2, “4-pyrimidin-5-ylmethyl-morpholine derivatives and the use thereof as medicament” (Boehringer Ingelheim International GmbH, priority 2018, dated 2021).

Legend:
Nav1.6 channel = Nav1.6 channel (Homo sapiens (Human), UniProt Q9UQD0); experiment: Nav1.6 inhibition, IonWorks Quattro electrophysiology; assay type: cell-based; settings: for inhibition at 1 µM / inhibition at 5 µM: normalized to vehicle (0%) and maximal inhibition control (100%)
Description: Ion Works Quattro electrophysiological platform
The compounds were prepared in DMSO at 300× the final assay concentrations of 1 and 5 μM.
The 300× DMSO stock solutions were transferred into assay plates where 2 μl per well of each 300× stock solution were placed. All assay plates were stored at −80° C. until the day of assay.
On the day of the assay, the appropriate assay plate was thawed at room temperature, centrifuged, and 198 μl of external recording solution was added and mixed thoroughly. This provided a 1:100 dilution. A further 1:3 dilution occurred upon addition to the cells in the IonWorks Quattro electrophysiological platform, giving a 1:300 dilution in total.
On each assay plate, at least 8 wells were reserved for vehicle control (0.3% DMSO) and at least 8 wells for each positive control specific to the cell line tested. The positive controls were tested at a maximal blocking and an approximate IC50 concentration. As positive control Lidocaine at concentrations of 30 and 1000 μM was used.
Amphotericin B was used to obtain electrical access to the cell interior at a final concentration of 200 μg/ml in internal recording solution.
State-dependent inhibition: Sodium channels when held at depolarized potential or long test pulse, the channels open and inactivate and then stay inactivated until the membrane potential is stepped back to hyperpolarized potentials, when the inactivated channels recover from inactivation into closed state.
Cells were held at −120 mV. In order to completely inactivate the sodium channels (pulse 1), the cells were pulsed to +0 mV for 2500 ms and stepped back to −120 mV for 10 ms (to completely recover from inactivation, however channels that had drugs bound to them will not recover from inactivation) before stepping to +0 mV for 20 ms (pulse 2).
Both the positive and vehicle control data associated with each cell line assayed are shown below as an example. The mean is shown for each positive and negative control as solid symbol with the total number of individual well replicates given next to the solid symbol. In addition, the individual data of each well are shown on the graph as open symbols so that the variation about the mean value can be readily assessed.
In FIG. 2, a Post/Pre value of 1.0 corresponds to 0% inhibition, a Post/Pre value of 0.0 corresponds to 100% inhibition.
Tables 3 and 4 show the normalized percentage inhibition of Nav1.6 channel. […] (see also the figure Assay Control Results above).

MDR1 (P-gp) = MDR1 (P-gp) (Homo sapiens (Human), UniProt P08183); experiment: MDCK assay P-gp (MDCK-MDR1 monolayer permeability); assay type: in vitro ADME; settings: for Papp A→B: MDCK-MDR1, apical-to-basal, pH 7.4; for efflux ratio: MDCK-MDR1, pH 7.4, Papp (b-a) divided by Papp (a-b), read-out: efflux ratio PEBA/PEAB
Description: The MDCK assays provide information on the potential of a compound to pass the blood brain barrier. Permeability measurements across polarized, confluent MDCK-MDR1 cell monolayers grown on permeable filter supports are used as an in vitro absorption model: apparent permeability coefficients (PE) of the compounds across the MDCK-MDR1 cell monolayers are measured (pH 7.4, 37° C.) in apical-to-basal (AB) and basal-to-apical (BA) transport direction. The AB permeability (PEAB) represents drug absorption from the blood into the brain and the BA permeability (PEBA) drug efflux from the brain back into the blood via both, passive permeability as well as active transport mechanisms mediated by efflux and uptake transporters that are expressed on the MDCK-MDR1 cells, predominantly by the overexpressed human MDR1. Identical or similar permeabilities in both transport directions indicate passive permeation (PEBA/PEAB≤1), vectorial permeability points to additional active transport mechanisms. Higher PEBA than PEAB (PEBA/PEAB>5) indicates the involvement of active efflux mediated by MDR1, which might compromise the goal to achieve sufficient brain exposure. Therefore, this assay provides valuable support for selection of compounds applicable for further in vivo testing. High permeability not limited by efflux at the blood brain barrier is a favourable characteristic for compounds that are to be used for drugs acting primarily in the CNS.
Apparent permeability coefficients (Papp) of the compounds across the MDCK-MDR1 monolayers (MDCKII cells transfected with human MDR1 cDNA expression plasmid) are measured in apical-to-basal (AB) and basal-to-apical (BA) direction.
MDCK-MDR1 cells (6×10^5 cells/cm^2) are seeded on filter inserts (Corning, Transwell, polycarbonate, 0.4 μm pore size) and cultured for 9 to 10 days. Compounds dissolved in DMSO stock solution (1-20 mM) are diluted with HTP-4 aqueous buffer (128.13 mM NaCl, 5.36 mM KCl, 1 mM MgSO4, 1.8 mM CaCl2, 4.17 mM NaHCO3, 1.19 mM Na2HPO4, 0.41 mM NaH2PO4, 15 mM HEPES, 20 mM glucose, pH 7.4) supplemented with 0.25% BSA to prepare the transport solutions (final concentration: 1 or 10 μM, final DMSO <=0.5%). The transport solution is applied to the apical or basolateral donor side for measuring A-B or B-A permeability, respectively. The receiver side contains HTP-4 buffer supplemented with 0.25% BSA. Samples are collected at the start and end of experiment from the donor and at various time intervals for up to 2 hours also from the receiver side for concentration measurement by HPLC-MS/MS (RapidFire High-throughput MS System (Agilent) coupled to QTrap 6500 (AB Sciex) or TSQ Vantage (Thermo Scientific)). Sampled receiver volumes are replaced with fresh receiver solution. Efflux ratio is calculated dividing the Papp (b-a) values by the Papp (a-b) values.

Sequence of Nav1.6 channel (Q9UQD0 whole entry): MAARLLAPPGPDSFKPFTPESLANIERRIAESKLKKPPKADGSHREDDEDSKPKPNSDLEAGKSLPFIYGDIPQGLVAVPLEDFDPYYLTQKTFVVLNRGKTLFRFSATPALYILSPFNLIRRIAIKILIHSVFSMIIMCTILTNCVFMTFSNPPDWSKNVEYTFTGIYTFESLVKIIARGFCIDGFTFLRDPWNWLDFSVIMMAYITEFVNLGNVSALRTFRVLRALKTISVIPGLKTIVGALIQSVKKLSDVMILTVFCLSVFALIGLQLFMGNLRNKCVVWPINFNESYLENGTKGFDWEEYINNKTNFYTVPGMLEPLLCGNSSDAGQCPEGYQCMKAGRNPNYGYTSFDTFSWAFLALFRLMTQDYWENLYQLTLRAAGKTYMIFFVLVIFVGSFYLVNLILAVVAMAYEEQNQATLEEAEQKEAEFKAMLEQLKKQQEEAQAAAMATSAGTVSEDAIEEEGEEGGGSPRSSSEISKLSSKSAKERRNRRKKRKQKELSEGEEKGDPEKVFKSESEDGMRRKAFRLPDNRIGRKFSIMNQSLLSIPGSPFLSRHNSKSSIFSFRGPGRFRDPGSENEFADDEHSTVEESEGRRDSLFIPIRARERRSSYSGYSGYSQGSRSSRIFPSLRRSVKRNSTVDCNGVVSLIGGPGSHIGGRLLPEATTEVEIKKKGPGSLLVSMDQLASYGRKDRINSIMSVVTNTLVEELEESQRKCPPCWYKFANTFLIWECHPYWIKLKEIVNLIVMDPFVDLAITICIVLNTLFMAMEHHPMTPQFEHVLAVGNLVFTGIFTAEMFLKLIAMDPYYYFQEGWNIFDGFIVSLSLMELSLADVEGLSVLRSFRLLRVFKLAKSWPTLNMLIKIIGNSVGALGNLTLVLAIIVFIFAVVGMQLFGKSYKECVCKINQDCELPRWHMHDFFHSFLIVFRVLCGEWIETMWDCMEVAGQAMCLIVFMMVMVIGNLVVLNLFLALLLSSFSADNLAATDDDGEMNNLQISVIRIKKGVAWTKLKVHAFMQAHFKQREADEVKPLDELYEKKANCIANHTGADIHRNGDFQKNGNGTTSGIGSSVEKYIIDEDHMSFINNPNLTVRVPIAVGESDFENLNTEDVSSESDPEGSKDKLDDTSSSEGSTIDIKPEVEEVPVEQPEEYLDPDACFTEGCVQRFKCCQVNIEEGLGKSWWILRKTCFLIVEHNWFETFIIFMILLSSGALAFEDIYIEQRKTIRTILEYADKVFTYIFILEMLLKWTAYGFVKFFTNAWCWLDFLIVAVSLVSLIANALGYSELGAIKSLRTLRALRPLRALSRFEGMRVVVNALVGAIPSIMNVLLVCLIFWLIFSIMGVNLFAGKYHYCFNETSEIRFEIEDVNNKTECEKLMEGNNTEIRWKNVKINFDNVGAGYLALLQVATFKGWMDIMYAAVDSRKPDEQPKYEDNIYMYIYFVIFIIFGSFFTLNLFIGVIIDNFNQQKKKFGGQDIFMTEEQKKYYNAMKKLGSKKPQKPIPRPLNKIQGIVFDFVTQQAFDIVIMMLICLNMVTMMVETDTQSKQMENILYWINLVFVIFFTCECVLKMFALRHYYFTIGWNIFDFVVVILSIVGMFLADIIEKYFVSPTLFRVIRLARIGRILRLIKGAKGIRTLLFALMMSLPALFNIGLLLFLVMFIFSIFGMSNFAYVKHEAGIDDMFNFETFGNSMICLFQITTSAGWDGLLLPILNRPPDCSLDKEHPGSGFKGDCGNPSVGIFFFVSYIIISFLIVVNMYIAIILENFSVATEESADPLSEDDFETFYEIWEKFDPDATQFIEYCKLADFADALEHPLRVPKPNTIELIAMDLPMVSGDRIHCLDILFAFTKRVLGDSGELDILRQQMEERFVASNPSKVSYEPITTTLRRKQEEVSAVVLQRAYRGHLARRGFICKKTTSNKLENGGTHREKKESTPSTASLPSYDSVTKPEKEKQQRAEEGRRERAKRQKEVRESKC

SMILES	inhibition at 1 µM (Nav1.6 channel) [%]	inhibition at 5 µM (Nav1.6 channel) [%]	Papp A→B (MDR1 (P-gp)) [×10⁻⁶ cm/s]	efflux ratio (MDR1 (P-gp))	inhibition of the Nav 1.6 channel (in words) (Nav1.6 channel; at 5 μM)
CNC(=O)[C@@H]1CN(Cc2cnc(Oc3ccc(C)cc3C)nc2)CCO1 [Example 22]	3.8	-10.4	57	0.7	
CNC(=O)[C@@H]1CN(Cc2cnc(Oc3ccccc3F)nc2)CCO1 [Example 27]	-3.1	4.3	54	0.7	
CNC(=O)[C@@H]1CN(Cc2cnc(Oc3ccccc3Cl)nc2)CCO1 [Example 26]	12.8	5.7	95	0.6	
CNC(=O)[C@@H]1CN(Cc2cnc(Oc3ccc(Cl)cc3)nc2)CCO1 [Example 25]	-11.8	-18.8	88	0.5	not showing any significant inhibition
CNC(=O)[C@@H]1CN(Cc2cnc(Oc3ccc(F)cc3)nc2)CCO1 [Example 32]	-7.7	-13.5	82	0.5	
CNC(=O)[C@@H]1CN(Cc2cnc(Oc3ccc(F)cc3C)nc2)CCO1 [Example 21]	1.3	3.6	56	1	
CNC(=O)[C@@H]1CN(Cc2cnc(Oc3ccc(F)cc3F)nc2)CCO1 [Example 23]	0.1	2.9	65	0.9	

Results, then the compound that gave them:

inhibition at 1 µM (Nav1.6 channel) [%]	inhibition at 5 µM (Nav1.6 channel) [%]	Papp A→B (MDR1 (P-gp)) [×10⁻⁶ cm/s]	efflux ratio (MDR1 (P-gp))	inhibition of the Nav 1.6 channel (in words) (Nav1.6 channel; at 5 μM)	SMILES
-6.2	-14.6	83	0.5		CNC(=O)[C@@H]1CN(Cc2cnc(Oc3ccc(C)cc3)nc2)CCO1 [Example 28]
-8.9	-10.1	80	0.7		CNC(=O)[C@@H]1CN(Cc2cnc(Oc3ccc(C)cc3F)nc2)CCO1 [Example 20]
5.8	-3.7	56	0.8		CNC(=O)[C@@H]1CN(Cc2cnc(Oc3ccc(Cl)cc3F)nc2)CCO1 [Example 24]
